According to patent US20080287527A1, “Pharmaceuticals for treating or preventing oral diseases” (HAWLEY & HAZEL (BVI) COMPANY LIMITED, priority 2007, published 2008):

Columns and labels:
TNF-α = assay: LUMINEX analysis of TNF-α in KB cell supernatant; assay type: cell-based, human; conditions: concentration not given
Experimental: (§1) Anti-inflammatory activity was assessed using the KB cell (the epidermis cancer cell in human oral cavity). During the experiment, the KB cell inoculated in the cultivating plate was treated with or without positive control or compound 5-hydroxymorusin. After the treatment, the supernatant of the cultivating medium was collected and stored in −80° C. refrigerators. Inflammation was assessed by measuring several inflammation markers: Prostaglandin E2 (PGE2) in the supernatant was detected by Enzyme-linked immunsorbent assay, and LUMINEX™ multifunctional liquid-phase chip analysis system was used for the detection of granulocyte monocyte colony stimulating factor (GM-CSF), tumor necrosis factor-alpha (TNF-α), and interleukins 1-beta and 6 (IL-1β and IL-6).
(§2) LUMINEX™ multifunctional liquid-phase chip analyses of GM-CSF, TNF-α, IL-1 and IL-6: The 96-well plate was enclosed with enclosing liquid for 30 minutes. Fluorescent microspheres were added into the 96-well plate after dilution. The standard and the samples to be measured were added, and incubated overnight at 4° C. The next day, the supernatant was discarded and 50 μL GM-CSF, TNF-α, IL-1β and IL-6 antibodies were added to each well. After being rinsed for 4 times, the 96-well plate was placed in a shaking table, which was in ambient temperature, to keep the plate away from light for 1 hour. […]

[1] = test system: Actinomyces viscosus (A. v) ATCC 27044; assay: MIC by broth micro-dilution against Actinomyces viscosus; assay type: cell-based; conditions: 37 °C, 18-24 h, no unit in table, dilution series 250-0.12 mg/L (ceiling 250 ppm)
Experimental: A single colony was picked from the Trypticase Digested Soybean peptone agar blood plate (TSA5B) of ordinarily stored bacteria species and used to inoculate corresponding broth culture medium, which was cultivated in a microaerobic environment (P.g needs anaerobic cultivation) with 95% air, 5% CO2 at 37.0° C.±1.0° C., […] Then corresponding broth cultivate medium was used to adjust the turbidity of the bacteria suspension to 0.5^# McFarland standard, equivalent to 1.0×10^8 CFU/mL.
(§3) The operating steps were:
(§4) a. Preparation of the stock solution of antibacterial pharmaceutical: 1% stock solution of various antibacterial pharmaceuticals was prepared with 100% pure ethanol as solvent. The prepared stock solution was filtered to eliminate bacteria, and was distributed into small portions to be used.
(§5) b. Range of measured concentration: the present experiment used 250 ppm as the ceiling measured concentration of the anti-bacterial pharmaceutical.
(§6) c. Measuring method: micro-dilution method. […]
(§7) The bacteria to be tested and standard bacteria were prepared as above. […] 0.12 mg/L, and the final inoculation quantity was about […] or 5×10^6 bacteria in each well. […]

IL-6 = assay: LUMINEX analysis of IL-6 in KB cell supernatant; assay type: cell-based, human; conditions: concentration not given
Experimental: as §1, §2

[2] = test system: Streptococcus mutans (S. m) ATCC 25175; assay: MIC by broth micro-dilution against Streptococcus mutans; assay type: cell-based; conditions: 37 °C, 18-24 h, no unit in table, dilution series 250-0.12 mg/L (ceiling 250 ppm)
Experimental: (§8) A single colony was picked from the Trypticase Digested Soybean peptone agar blood plate (TSA5B) of ordinarily stored bacteria species and used to inoculate corresponding broth culture medium, which was cultivated in a microaerobic environment (P.g needs anaerobic cultivation) with 95% air, 5% CO2 at 37.0° C.±1.0° C., wherein S.m was cultivated for 18-24 h, and the remaining two species were cultivated for 40-48 h. Then corresponding broth cultivate medium was used to adjust the turbidity of the bacteria suspension to 0.5^# McFarland standard, equivalent to 1.0×10^8 CFU/mL.
as §3, §4, §5, §6, §7

IL-1β = assay: LUMINEX analysis of IL-1β in KB cell supernatant; assay type: cell-based, human; conditions: concentration not given
Experimental: as §1, §2

GM-CSF = assay: LUMINEX analysis of GM-CSF in KB cell supernatant; assay type: cell-based, human; conditions: concentration not given
Experimental: as §1, §2

[3] = test system: Porphyromonas gingivalis (P. g) ATCC 33277; assay: MIC by broth micro-dilution against Porphyromonas gingivalis; assay type: cell-based; conditions: anaerobic, 37 °C, 18-24 h, no unit in table, dilution series 250-0.12 mg/L (ceiling 250 ppm)
Experimental: as §8, §3, §4, §5, §6, §7

Oc1cc(Cl)ccc1Oc1ccc(Cl)cc1Cl [Triclosan]
anti-inflammatory effect, TNF-α (the larger the value, the stronger the anti-inflammatory ability) (TNF-α): 81% | minimum inhibitive concentration (MIC), A. v ATCC 27044 [1]: 3.9 | anti-inflammatory effect, IL-6 (the larger the value, the stronger the anti-inflammatory ability) (IL-6): 31% | minimum inhibitive concentration (MIC), S. m ATCC 25175 [2]: 3.9 | anti-inflammatory effect, IL-1β (the larger the value, the stronger the anti-inflammatory ability) (IL-1β): 7% | anti-inflammatory effect, GM-CSF (the larger the value, the stronger the anti-inflammatory ability) (GM-CSF): 5% | minimum inhibitive concentration (MIC), P. g ATCC 33277 [3]: 7.8
